Experimental data as given in patent US6825230B2, “Spiro and dispiro 1,2,4-trixolane antimalarials” (Medicines for Malaria Venture MMV, priority 2002, dated 2004).
≈ marks a conversion by molar mass, not a printed value. Like-named read-outs stand apart in the source and are kept apart here.

Key:
[1] = system: chloroquine-resistant K1 strain of P. falciparum; assay: In vitro antimalarial semiautomated microdilution assay ([3H]-hypoxanthine incorporation), K1 strain; assay type: cell-based, Plasmodium falciparum; settings: for IC50: Plasmodium falciparum
In short: (§1)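 Asynchronous stock-culture parasites (intraerythrocytic forms), serial compound dilutions; readout [3H]-hypoxanthine uptake; IC50 via Logit regression.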

[2] = system: chloroquine-sensitive NF54 strain of P. falciparum; assay: In vitro antimalarial semiautomated microdilution assay ([3H]-hypoxanthine incorporation), NF54 strain; assay type: cell-based, Plasmodium falciparum; settings: for IC50: Plasmodium falciparum
In short: as §1

[3] = system: ANKA strain of P. berghei; assay: Single dose STI in vivo screen in infected mice; design: species or system Plasmodium berghei; settings: for Survival (days) 10 mg/kg po: single 10 mg/kg po in 3% ethanol and 7% Tween 80; for Survival (days) 10 mg/kg po / Survival (days) 10 mg/kg SSV po / Survival (days) 10 mg/kg sc: untreated 6-7 days; for Activity (%) 10 mg/kg po: single 10 mg/kg po in 3% ethanol and 7% Tween 80 on day 1 post-infection; for Activity (%) 10 mg/kg po / Activity (%) 10 mg/kg SSV po / Activity (%) 10 mg/kg sc: percent reduction in parasitemia on day 3; for Survival (days) 10 mg/kg SSV po: single 10 mg/kg po in SSV; for Activity (%) 10 mg/kg SSV po: single 10 mg/kg po in standard suspending vehicle (SSV) on day 1 post-infection; for Survival (days) 10 mg/kg sc: single 10 mg/kg sc in 3% ethanol and 7% Tween 80; for Activity (%) 10 mg/kg sc: single 10 mg/kg sc in 3% ethanol and 7% Tween 80 on day 1 post-infection
[4] = system: Schistosoma mansoni adult worms (49-day-old); assay: Effect on adult schistosomes (49-day-old) in infected mice; assay type: in vivo; settings: for % reduction of adult worms growth at day 49 after per os application of 400 mg/kg, TWR (%) / Adult worms day 49, per os 400 mg/kg, DEAD WORM (%): single 400 mg/kg per os
Description: Mice were infected with 100 Schistosoma mansoni cercariae on day 49 post-treatment. Each group was treated per os with OZ compounds at single doses of 200, 400, and 600 mg/kg. Untreated mice served as the control. All groups were killed 4 weeks after treatment and the liver and intestine were removed and separated. The liver and intestine were compressed and alive male and female worms could be seen and counted.

[5] = K1, 72 h, read-out: IC50 (ng/ml) K1, chloroquine-resistant K1 strain, 72 h incubation
[6] = NF54, 72 h, read-out: IC50 (ng/ml) NF54, chloroquine-sensitive NF54 strain, 72 h incubation
[7] = 49-day-old adults, total worm reduction rate
[8] = percentage of dead worm in the liver
[9] = chloroquine-resistant K1 strain, 72 h incubation, read-out: IC50 (ng/ml) K1
[10] = chloroquine-sensitive NF54 strain, 72 h incubation, read-out: IC50 (ng/ml) NF54
[11] = chloroquine-sensitive NF54 strain, 72 h incubation

| Compound | IC50 [1, 5] [ng/mL] | Survival (days) 10 mg/kg po [3] [days] | Activity (%) 10 mg/kg po [3] [%] | Survival (days) 10 mg/kg SSV po [3] [days] | Activity (%) 10 mg/kg SSV po [3] [%] | Survival (days) 10 mg/kg sc [3] [days] | Activity (%) 10 mg/kg sc [3] [%] | % reduction of adult worms growth at day 49 after per os application of 400 mg/kg, TWR (%) [4, 7] [%] | Adult worms day 49, per os 400 mg/kg, DEAD WORM (%) [4, 8] | also measured |
| --- | --- | --- | --- | --- | --- | --- | --- | --- | --- | --- |
| NC(=O)OC1CCC2(CC1)OOC1(O2)C2CC3CC(C2)CC1C3 (stereo not shown) [OZ107] | 1 (≈ 0.00309 µM) | 6.3 | 70 | 6.3 | 32 | 8.0 | 99.74 | 26 | 4% | IC50 [2, 6]: 0.3 ng/mL (≈ 0.000928 µM) |
| CCN(CC)CC[C@H]1CC[C@]2(CC1)OOC1(O2)C2CC3CC(C2)CC1C3 (stereo partly shown) [OZ126] | – | 7.0 | 55 | 6.7 | 72 | 8.5 | 99.44 | 0 | 9% | IC50 [1, 9]: 0.2 ng/mL (≈ 0.00055 µM); IC50 [2, 10]: 0.5 ng/mL (≈ 0.00138 µM) |
| O=C1COC2(CCC3(CC2)OOC2(O3)C3CC4CC(C3)CC2C4)OC1 (stereo not shown) [OZ130, Adamantane-2-spiro-3′-11′-oxo-1′,2′,4′,9′,13′-pentaoxadispiro[4.2.5.2]pentadecane] | 0.62 (≈ 0.00177 µM) | 9.0 | 98.8 | 8.0 | 98.9 | 7.3 | 98.6 | 0 | 8% | IC50 [2, 6]: 0.94 ng/mL (≈ 0.00268 µM) |
| O=[N+]([O-])c1cccc(C2(c3cccc([N+](=O)[O-])c3)OOC3(O2)C2CC4CC(C2)CC3C4)c1 (stereo not shown) [OZ105, Adamantane-2-spiro-3′-5′,5′-bis(3′-nitrophenyl)-1′,2′,4′-trioxolane] | 5.4 (≈ 0.0123 µM) | 5.7 | 16 | 5.7 | 0 | 6.3 | 28 | 8 | 0% | – |
| O=C(OC[C@H]1CC[C@]2(CC1)OOC1(O2)C2CC3CC(C2)CC1C3)N1CCN(c2ccccc2)CC1 (stereo partly drawn) [OZ148, cis-Adamantane-2-spiro-3′-1′,2′,4′-trioxaspiro[4.5]decane-8′-methyl 4-phenylpiperazine-1-carboxylate] | – | 7.3 | 38 | 7.7 | 58 | 6.3 | 21 | 25 | 0% | IC50 [1, 9]: 17 ng/mL (≈ 0.0352 µM); IC50 [2, 10]: 16 ng/mL (≈ 0.0332 µM) |
| OC12CC3CC(C1)C1(OOC4(CCC5(CC4)OCCO5)O1)C(C3)C2 (stereo not shown) [OZ153, 5-Hydroxyadamantane-2-spiro-3′-1′,2′,4′,9′,12′-pentaoxadispiro[4.2.4.2]tetradecane] | – | 6.3 | – | – | – | – | – | – | no dead | IC50 (ng/ml) K1 ([1]; chloroquine-resistant K1 strain, 72 h incubation): 7.7 ng/mL (≈ 0.0228 µM); IC50 (ng/ml) NF54 [2, 11]: 19 ng/mL (≈ 0.0561 µM); Activity (%) 10 mg/kg po ([3]; 10 mg/kg): 15%; Survival (days) 10 mg/kg SSV po ([3]; 10 mg/kg): 7.0 days; Activity (%) 10 mg/kg SSV po ([3]; 10 mg/kg): 23%; Survival (days) 10 mg/kg sc ([3]; 10 mg/kg): 6.3 days; Activity (%) 10 mg/kg sc ([3]; 10 mg/kg): 20% |
| O=C(C[C@H]1CC[C@]2(CC1)OOC1(O2)C2CC3CC(C2)CC1C3)N1CCOCC1 (stereo partly shown) [OZ189] | 1.7 (≈ 0.00434 µM) | 9.3 | 95 | 9.0 | 99.79 | 10.7 | 98 | 0 | 30% | IC50 [2, 6]: 3 ng/mL (≈ 0.00766 µM) |
| O=C([C@H]1CC[C@]2(CC1)OOC1(O2)C2CC3CC(C2)CC1C3)N1CCN(c2ccccc2)CC1 (stereo partly shown) [OZ140] | 5.9 (≈ 0.013 µM) | 6.0 | 0 | 6.3 | 8 | 7.0 | 60 | 0 | 3% | IC50 [2, 6]: 8.2 ng/mL (≈ 0.0181 µM) |
| C1=C(c2ccccc2)CCC2(C1)OOC1(O2)C2CC3CC(C2)CC1C3 (stereo not shown) [OZ226, Adamantane-2-spiro-3′-8′-phenyl-1′,2′,4′-trioxaspiro[4.5]dec-7′-ene] | 4 (≈ 0.0118 µM) | 5.0 | 0 | 5.3 | 0 | 11.0 | 99.92 | 52 | 0% | IC50 [2, 6]: 4 ng/mL (≈ 0.0118 µM) |
| O=C(C1CCCCC1)N1CC(=O)N2CCc3ccccc3C2C1 (stereo not shown) [PRAZIQUANTEL, praziquantel, reference compound] | – | – | – | – | – | – | – | 93 | 89% | % reduction of adult worms growth at day 49 after per os application of 600 mg/kg, TWR (%) ([4]; single 600 mg/kg per os, 49-day-old adults, total worm reduction rate): 100/100%; Adult worms day 49, per os 600 mg/kg, DEAD WORM (%) ([4]; single 600 mg/kg per os, percentage of dead worm in the liver): 100/100% |
| O=S1(=O)CCC2(CC1)OOC1(O2)C2CC3CC(C2)CC1C3 (stereo not shown) [OZ50] | – | – | – | – | – | – | – | 12 | 4% | – |
| CC1(C)COC(c2ccc([C@H]3CC[C@]4(CC3)OOC3(O4)C4CC5CC(C4)CC3C5)cc2)=N1 (stereo partly shown) [OZ154] | 5 (≈ 0.0114 µM) | – | – | – | – | – | – | 58 | 0% | IC50 (ng/ml) NF54 [2, 11]: 6.1 ng/mL (≈ 0.0139 µM); Survival (days) 10 mg/kg po ([3]; 10 mg/kg): 14.7 days; Activity (%) 10 mg/kg po ([3]; 10 mg/kg): 99.74%; Survival (days) 10 mg/kg SSV po ([3]; 10 mg/kg): 8.7 days; Activity (%) 10 mg/kg SSV po ([3]; 10 mg/kg): 81%; Survival (days) 10 mg/kg sc ([3]; 10 mg/kg): 7.7 days; Activity (%) 10 mg/kg sc ([3]; 10 mg/kg): 59% |
| OC1(c2ccc(F)cc2)CCC2(CC1)OOC1(O2)C2CC3CC(C2)CC1C3 (stereo not shown) [OZ76] | – | – | – | – | – | – | – | 32 | 0% | – |
| CCOC(=O)CC1CCC2(CC1)OOC1(O2)C2CC3CC(C2)CC1C3 (stereo not shown) [OZ61] | – | – | – | – | – | – | – | 8 | 21% | – |
| c1ccc(C2(c3ccccn3)OOC3(O2)C2CC4CC(C2)CC3C4)nc1 (stereo not shown) [OZ81] | – | – | – | – | – | – | – | 28 | 0% | – |
| CC1(C)COC2(CCC3(CC2)OOC2(O3)C3CCCC2CCC3)OC1 (stereo not shown) [OZ68] | – | – | – | – | – | – | – | 17 | 0% | – |
| O=C(O)C1CCC2(CC1)OOC1(O2)C2CC3CC(C2)CC1C3 (stereo not shown) [OZ72] | – | – | – | – | – | – | – | 0 | – | Adult worms day 49, per os 400 mg/kg, DEAD WORM (%) ([4]; percentage of dead worm in the liver, listed as OZ 72): 10% |
| Clc1ccc(C2(c3ccc(Cl)cc3)OOC3(O2)C2CC4CC(C2)CC3C4)cc1 (stereo not shown) [OZ43] | – | – | – | – | – | – | – | 1 | 0% | – |
| c1ccc(C2CCC3(CC2)OOC2(O3)C3CCCC2CCC3)cc1 (stereo not shown) [OZ67] | – | – | – | – | – | – | – | 38 | 0% | – |
